Assay results reported in US10752596B2, “Nitrogen-containing heteroaryl compound and pharmaceutical use thereof” (JAPAN TOBACCO INC., priority 2017, dated 2020).

Molecular target: human GLUT9 (Homo sapiens (Human), UniProt Q9NRM0)
Experiment: Evaluation of human GLUT9 inhibitory activity ([14C] uric acid uptake in human GLUT9 expressing HEK293T cells transduced with Uricase/Hyper)
Type: cell-based
Details: final 300 μM uric acid, 6 min, human GLUT9 stably expressing HEK293T cells, read-out: humans GLUT9 inhibitory activity (IC50 value (μM))
Procedure: A method for measuring GLUT9 inhibitory activity using human GLUT9 expressing cells transduced with Uricase/Hyper is shown hereinafter. GLUT9 inhibitory activity ([…]) of the test compound was calculated based on the intracellular uptake amount of labeled uric acid ([^14C] uric acid) transported by GLUT9.
1. Preparation of Human GLUT9 Expression Plasmid
Human GLUT9S coding region (NM_001001290.1) was amplified by PCR method using PrimeSTAR MAX DNA Polymerase (Takara Bio). The obtained PCR product was subjected to agarose gel electrophoresis, and the desired size of PCR product was purified by QIAquick Gel Extraction Kit (QIAGEN). Next, pEBMulti-Bsd vector (Wako Pure Chemical Industries, Ltd.) was subjected to digestion using restriction enzymes SalI and EcoR V, and linked to the PCR product containing GLUT9S by In-Fusion reaction using In-Fusion HD Cloning Kit (Takara Bio). XL10-Gold Competent Cells (Agilent Technologies) were transformed in In-Fusion reaction solution, and the obtained transfectants were cultured with shaking overnight in LB medium to which Blasticidin S HCl (Thermo Fisher Scientific) was added. Human GLUT9 expression plasmid DNA was prepared from the collected transfectants using EndoFree Plasmid Kit (Takara Bio).
2. Establish of Human GLUT9 Stably Expressing Cell
HEK293T cells (American Type Culture Collection, DS Pharma Biomedical) were seeded in a 6 well plate at 1×10^6 cells/well. Next day, human GLUT9 expression plasmid was transfected by using Lipofectamine 3000 Reagent (Thermo Fisher Scientific) as follows. Lipofectamine 3000 Reagent (5 μL) was diluted with Opti-MEM (125 μL, Thermo Fisher Scientific). Separately, plasmid DNA (2.5 μg) was diluted with Opti-MEM (125 μL), and P3000 Reagent (5 μL) was added thereto. The obtained solution was mixed with the previously obtained diluted solution, and the mixture was left stand at room temperature for 5 min, and added to the cells. Next day, the transfected cells were diluted and reseeded in a 6 well plate at 4×10^5 cells/well, and drug selection was performed in the presence of 30 μg/mL of Blasticidin S HCl, and thereby, Blasticidin-resistant human GLUT9 stably expressing cell line was established. Mock cells were prepared by introducing pEBMulti-Bsd vector into HEK293T cells in a similar manner.
3. Preparation of Uricase/Hyper Expression Plasmid
Uricase/Hyper expression plasmid was prepared by linking the coding regions of Aspergillus Flavus-derived uricase gene and pHyPer-Cyto vector (Evrogen) HyPer gene to the pEBMulti-Hyg vector (Wako Pure Chemical Industries, Ltd.) and then introducing it. The preparation method was performed by reference to Gout and Nucleic Acid Metabolism 2013, 37(2), 93-101, and seven repeated linker sequence of glycine-glycine-glycine-serine was prepared herein.
4. Preparation of Human GLUT9-Uricase/Hyper Coexpressing Cell
Human GLUT9 stably expressing cells were seeded at 3.6×10^7 cells per 225 cm^2 flask. Next day, Uricase/Hyper expression plasmid was transfected by using Lipofectamine 3000 Reagent as follows. Lipofectamine 3000 Reagent (40 μL) was diluted with Opti-MEM (750 μL). Separately, plasmid DNA (20 μg) was diluted with Opti-MEM (750 μL), and P3000 Reagent (40 μL) was added thereto. The obtained solution was mixed with the previously obtained diluted solution, and the mixture was left stand at room temperature for 5 min, and added to the cells. Next day, transfected cells were collected to prepare human GLUT9-Uricase/Hyper coexpressing cells.
5. Evaluation of GLUT9 Inhibitory Activity
Uricase/Hyper transiently-transfected human GLUT9 stably expressing cells or mock cells (blank) were seeded in a 96 well plate (Corning) at 1.6×10^5 cells/well, and cultured overnight at 37° C., 5% CO2. D-MEM/high glucose (Wako Pure Chemical Industries, Ltd.) containing 10% Fetal Bovine Serum (Lifetechnology) and 100 units/ml penicillin/100 μg/ml streptomycin (GIBCO) was used as a medium.

human GLUT9, sequence (Q9NRM0 other isoform, or with tags, fused parts or gaps): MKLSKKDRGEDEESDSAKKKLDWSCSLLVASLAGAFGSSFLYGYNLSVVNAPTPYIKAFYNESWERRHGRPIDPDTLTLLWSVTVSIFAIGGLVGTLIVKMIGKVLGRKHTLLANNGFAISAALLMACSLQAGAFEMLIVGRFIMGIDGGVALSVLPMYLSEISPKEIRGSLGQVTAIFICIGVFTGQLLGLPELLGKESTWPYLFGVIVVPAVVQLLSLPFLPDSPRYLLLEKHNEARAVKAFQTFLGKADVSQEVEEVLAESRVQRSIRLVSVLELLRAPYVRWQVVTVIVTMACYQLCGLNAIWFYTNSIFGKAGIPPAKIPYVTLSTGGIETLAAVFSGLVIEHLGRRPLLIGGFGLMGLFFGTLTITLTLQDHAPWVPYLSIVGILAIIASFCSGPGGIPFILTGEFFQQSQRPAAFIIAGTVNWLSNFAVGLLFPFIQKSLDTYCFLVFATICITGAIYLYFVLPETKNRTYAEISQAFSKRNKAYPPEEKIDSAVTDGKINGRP

SMILES | IC50
CCCCc1cnc(-c2ccc(CCC)cc2)c(-c2ccc(C(=O)O)cc2)n1 [Example 79] | 0.369 µM
COCCCc1cnc(-c2ccc(OC)c(F)c2)c(-c2ccc(CCC(=O)O)cc2)c1 [Example 108] | 0.0712 µM
COc1ccc(-c2ncc(Cc3ccccc3)cc2-c2ccc(C(=O)O)cc2)cc1 [Example 101] | 0.164 µM

Continued, values first:

IC50 | SMILES
1.65 µM | COc1ccc(-c2ncc(CCCC3(O)CCC3)cc2-c2ccc(C(=O)O)cc2)cc1 [Example 44]
7.13 µM | COc1ccc(-c2ncc(CCCOCCO)cc2-c2ccc(C(=O)O)cc2)cc1 [Example 43]
